Experiment [1] in a line: Inhibition of tyrosine-protein kinase pp60v-src.
Experiment [2] in a line: Inhibition of matrix metalloprotease.
Experiment [3] addresses GMP synthase [glutamine-hydrolyzing] (Homo sapiens) (UniProt P49915). Description: Inhibition of GMPS in human A3.01 cells at 50 uM. Type of experiment: cell-based.
For experiment [4], the target named is T1, Polyunsaturated fatty acid lipoxygenase ALOX15 (Homo sapiens, UniProt P16050).
T1 sequence (P16050 whole entry): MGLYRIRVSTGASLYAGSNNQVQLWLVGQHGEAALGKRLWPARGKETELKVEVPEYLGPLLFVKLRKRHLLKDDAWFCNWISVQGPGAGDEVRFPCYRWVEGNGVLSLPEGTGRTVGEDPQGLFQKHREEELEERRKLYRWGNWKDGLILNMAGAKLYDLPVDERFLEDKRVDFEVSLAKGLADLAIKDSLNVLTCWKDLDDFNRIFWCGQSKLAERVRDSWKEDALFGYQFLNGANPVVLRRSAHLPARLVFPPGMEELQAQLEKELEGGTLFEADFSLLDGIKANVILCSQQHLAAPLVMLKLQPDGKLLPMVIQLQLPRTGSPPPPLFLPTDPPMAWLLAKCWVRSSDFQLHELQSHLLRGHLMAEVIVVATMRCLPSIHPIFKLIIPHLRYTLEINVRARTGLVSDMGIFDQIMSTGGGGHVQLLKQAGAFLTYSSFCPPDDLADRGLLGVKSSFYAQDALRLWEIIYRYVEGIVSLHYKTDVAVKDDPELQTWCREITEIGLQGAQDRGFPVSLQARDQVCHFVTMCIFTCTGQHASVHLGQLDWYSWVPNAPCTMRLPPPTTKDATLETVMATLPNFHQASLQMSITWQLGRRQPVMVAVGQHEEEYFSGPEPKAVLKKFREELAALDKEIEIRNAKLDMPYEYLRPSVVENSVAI
Description: Inhibition of 15-lipoxygenase.

Experiment [5] in a line: Inhibition of inosine monophosphate dehydrogenase. On the set-up: unit not given here.
Experiment [6] deals with T2, Polyunsaturated fatty acid lipoxygenase ALOX15 (Homo sapiens) (UniProt P16050).
T2 sequence (whole entry): T1 sequence (P16050 whole entry)
Description: Inhibition of 15-lipoxygenase at 40 ug/ml. To be noted: at 40 µg/mL.

Experiment [7] can be described thus: Inhibition of PKC.

Calls of active or inactive are those of the source. The rule behind the calls is not given here.

Chain of GMP synthase [glutamine-hydrolyzing] (Homo sapiens) (P49915 whole entry): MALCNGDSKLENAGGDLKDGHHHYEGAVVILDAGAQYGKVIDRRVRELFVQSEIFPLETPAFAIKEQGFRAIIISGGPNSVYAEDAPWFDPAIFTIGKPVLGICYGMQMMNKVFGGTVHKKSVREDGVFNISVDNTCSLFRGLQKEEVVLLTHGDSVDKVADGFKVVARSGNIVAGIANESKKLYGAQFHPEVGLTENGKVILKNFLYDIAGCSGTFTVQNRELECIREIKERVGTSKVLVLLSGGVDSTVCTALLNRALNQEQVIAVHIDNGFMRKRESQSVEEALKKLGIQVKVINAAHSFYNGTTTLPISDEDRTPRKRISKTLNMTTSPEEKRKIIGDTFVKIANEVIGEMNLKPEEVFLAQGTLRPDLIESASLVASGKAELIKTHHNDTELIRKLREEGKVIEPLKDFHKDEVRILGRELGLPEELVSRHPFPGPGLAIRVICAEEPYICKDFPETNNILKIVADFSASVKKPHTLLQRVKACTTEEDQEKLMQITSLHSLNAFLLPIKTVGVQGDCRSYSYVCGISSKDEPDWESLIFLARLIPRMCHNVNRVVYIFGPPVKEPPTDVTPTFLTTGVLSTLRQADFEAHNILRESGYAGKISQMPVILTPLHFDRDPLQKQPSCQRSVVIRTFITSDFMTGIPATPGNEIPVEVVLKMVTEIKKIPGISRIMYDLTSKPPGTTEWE

For the compound `Oc1c(Br)cc(Br)cc1Oc1ccc(Br)cc1Br`, in experiment [1], the result was inactive.

`Oc1c(Oc2ccc(Br)cc2Br)cc(Br)c(Br)c1Br`: the outcome in experiment [1] and in experiment [2] was inactive. The inhibition (usually how much of the control response was suppressed) in experiment [3] worked out at 71%. The IC50 – broadly, the concentration that gives 50% inhibition – in experiment [4] was 7.4 µM. This compound returned an EC50 in experiment [5] of 4.4.

Regarding `Oc1cc(Br)cc(Br)c1Oc1c(O)cc(Br)c(Br)c1Br`, in experiment [6], the inhibition turned out to be 100%.

Turning to `Oc1c(Br)cc(Br)cc1Oc1c(O)c(Br)c(Br)c(Br)c1Br`, the outcome in experiment [1], in experiment [2] and in experiment [7] was inactive. For the same compound, in experiment [3], the inhibition worked out at 96%. The same compound showed an IC50 in experiment [4] of 1.3 µM. In addition, the EC50 in experiment [5] was 2.79.

With `COc1cc(Br)cc(Br)c1Oc1cc(Br)cc(Br)c1O`, the outcome in experiment [1] was inactive.

In the case of `Oc1c(Br)cc(Br)cc1Oc1c(Br)cc(Br)c(Br)c1O`, the outcome in experiment [1] and in experiment [2] was inactive. In experiment [3], this compound returned an inhibition of 70%. Also, in experiment [4], it took 2.5 µM to reach half-maximal inhibition (IC50). In experiment [5], this compound yielded an EC50 of 7.8.

Take `Oc1cc(Br)cc(Br)c1Oc1ccc(Br)cc1Br`: the outcome in experiment [1] and in experiment [2] was inactive. Further, in experiment [3], the inhibition is 56%. The same compound came in with an EC50 in experiment [5] of 5.71.

With `Oc1cc(Br)c(Br)c(Br)c1Oc1cc(Br)cc(Br)c1O`, the result in experiment [1] and in experiment [2] was inactive. Besides, in experiment [3], the inhibition amounted to 89%.

For `Oc1cc(Br)c(Br)c(Br)c1Oc1ccc(Br)cc1Br`, the result in experiment [1] and in experiment [2] was inactive. Besides, in experiment [3], the inhibition is 99%. Half-maximal inhibition in experiment [4] (IC50) required 7.4 µM. Further, the EC50 in experiment [5] is listed as 4.

On to `COc1c(Br)cc(Br)cc1Oc1c(O)cc(Br)cc1Br`, for which the outcome in experiment [1] was inactive.
